Measured values as given in US20170275287A1, “NOVEL N2, N4, N7, 6-TETRASUBSTITUTED PTERIDINE-2,4,7-TRIAMINE AND 2, 4, 6, 7-TETRASUBSTITUTED PTERIDINE COMPOUNDS AND METHODS OF SYNTHESIS AND USE THEREOF” (Janus Biotherapeutics, Inc., priority 2014, published 2017).

What follows are compounds tested against T1, TLR9 (Homo sapiens, UniProt Q9NR96) (assay: TLR9 antagonist assay in human PBMCs (ODN2395, IFNα ELISA)). Conditions: human PBMC, 0.25 μM ODN2395, IFNα readout.
T1 construct: PBMCs were isolated from unpurified buffy coat from healthy human donors; host or cells: primary human PBMCs
T1 sequence (Q9NR96 26-1032): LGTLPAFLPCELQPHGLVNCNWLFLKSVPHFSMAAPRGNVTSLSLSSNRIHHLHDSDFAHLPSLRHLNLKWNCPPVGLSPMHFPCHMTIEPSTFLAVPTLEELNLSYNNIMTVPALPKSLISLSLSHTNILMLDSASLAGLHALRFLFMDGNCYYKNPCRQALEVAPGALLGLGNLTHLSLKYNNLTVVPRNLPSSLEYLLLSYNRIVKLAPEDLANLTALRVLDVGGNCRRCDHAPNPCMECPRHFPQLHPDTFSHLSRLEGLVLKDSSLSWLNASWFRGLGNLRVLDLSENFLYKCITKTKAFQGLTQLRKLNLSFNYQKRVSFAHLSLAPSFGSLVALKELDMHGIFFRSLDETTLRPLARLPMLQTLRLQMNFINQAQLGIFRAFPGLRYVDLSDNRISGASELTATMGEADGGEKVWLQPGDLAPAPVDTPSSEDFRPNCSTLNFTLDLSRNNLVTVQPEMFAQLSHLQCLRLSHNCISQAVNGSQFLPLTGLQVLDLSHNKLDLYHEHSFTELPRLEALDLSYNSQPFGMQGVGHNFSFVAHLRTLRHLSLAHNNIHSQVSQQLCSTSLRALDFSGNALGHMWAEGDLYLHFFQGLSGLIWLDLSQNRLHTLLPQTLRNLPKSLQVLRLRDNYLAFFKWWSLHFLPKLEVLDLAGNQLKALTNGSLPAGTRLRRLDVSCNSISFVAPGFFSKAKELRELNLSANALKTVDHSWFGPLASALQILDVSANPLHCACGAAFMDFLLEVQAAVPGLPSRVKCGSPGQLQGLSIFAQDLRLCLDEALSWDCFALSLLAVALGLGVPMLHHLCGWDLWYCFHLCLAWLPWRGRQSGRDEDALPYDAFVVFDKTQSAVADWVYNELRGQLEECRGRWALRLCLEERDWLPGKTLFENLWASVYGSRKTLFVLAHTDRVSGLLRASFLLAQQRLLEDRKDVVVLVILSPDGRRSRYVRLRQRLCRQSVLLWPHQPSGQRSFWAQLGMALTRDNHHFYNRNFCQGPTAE
Assay type: cell-based
Protocol: PBMCs were isolated from unpurified buffy coat from healthy human donors (Blood Research Components, LLC). For antagonist testing, cells were plated on 96-well U-bottom plates at 3×10^6 cells/ml. Antagonist compounds were added to cells in duplicate wells and titrated from 10 μM in 1:3 serial dilutions (8 antagonist concentrations tested in total). After approximately 30 minutes, cells were stimulated with agonist compound (see table 2 for agonist concentrations). After stimulation, cells were incubated overnight at 37° C. To increase the stability of the ssRNA, 3 μg/ml DOTAP (Roche) was added to ORN1075 agonist solutions. All dilutions were made in RPMI-1640 media (Sigma, cat.# R7388)+5% human male AB sera (Sigma, cat.# H4522)+1× Penicillin/Streptomycin solution (VWR, cat.#82026-730).
TLR activity was measured in PBMCs and neutrophils by ELISA using cytokine readouts specific for the TLR of interest.
IFNα was measured as a readout for TLR7 and TLR9 activity in PBMCs stimulated with either ORN1075, or ODN2395, respectively, using a Human Pan-IFNα ELISA kit (MABTech, cat.#3425-1H-20). PBMC supernatant was diluted 1:3 in PBS+0.05% tween-20+0.1% BSA. Absorbance at 450 nm was recorded using a Molecular Devices SpectraMax340PC plate reader. The IC50 for each antagonist was subsequently calculated following the method described below.
Raw ELISA datasets for each 96-well plate, consisting of absorbance readings at […], were first imported in Microsoft Excel to calculate the average absorbance for each standard or antagonist concentration. The averaged data was then imported into SigmaPlot v.11.0 where a standard curve was calculated and used to extrapolate the relative concentration of TLR readout (TNFα, IFNα, etc.) produced. The dose-response curve of each antagonist was then plotted with SigmaPlot v.11.0 on a Log scale. Concentrations of TLR readout were converted to a percentage relative to the average maximum concentration for that ELISA plate in Microsoft Excel. The IC50 for each antagonist was then determined with the SigmaPlot regression wizard using a 4-parameter Hill equation. Each antagonist was tested in a minimum of 3 independent experiments and IC50 results were compiled and averaged using Microsoft Excel.
For `CCCCNc1nc(NCCN2CCOCC2)c2nc(Cl)c(NCCN3CCOCC3)nc2n1` [JB6140], the IC50 was 0.101 µM. With `CN1CCN(c2nc(NCCN3CCOCC3)c3ncc(-c4ccccc4)nc3n2)CC1` [JB6059] the IC50 was 0.305 µM. Work on `CN1CCN(c2nc(NCCN3CCOCC3)c3nc(Cl)c(NCCN4CCOCC4)nc3n2)CC1` [JB6121, 6-chloro-2-(4-methylpiperazin-1-yl)-N^4,N^7-bis(2-morpholinoethyl)pteridine-4,7-diamine] yielded an IC50 of 0.146 µM. Compound `Clc1nc2c(NCCN3CCOCC3)nc(N3CCOCC3)nc2nc1NCCN1CCOCC1` [JB6147] has an IC50 of 8.68 µM. With `C[C@@H]1CN(CCNc2nc3nc(N4CCN(C)CC4)nc(NCCN4C[C@@H](C)O[C@@H](C)C4)c3nc2Cl)C[C@H](C)O1` [JB6143] the IC50 was 0.054 µM. In the case of `CCOc1nc2c(NCCN3CCOCC3)nc(NCc3ccccc3)nc2nc1NCCN1CCOCC1` [JB6180], the IC50 is reported as 0.114 µM. With `CCOc1nc2c(NCCN3CCCC3)nc(-c3ccccc3)nc2nc1N1CCN(C)CC1` [JB6131] the IC50 was 0.326 µM. Work on `CCCCNc1nc(NCCN2CCOCC2)c2nc(SCC)c(NCCN3CCOCC3)nc2n1` [JB6185] yielded an IC50 of 0.061 µM. In the case of `COCCN1CCN(c2nc(NCCN3CCOCC3)c3nc(Cl)c(NCCN4CCOCC4)nc3n2)CC1` [JB6160], the IC50 is reported as 0.06 µM. `Clc1nc2c(NCCN3CCOCC3)nc(NCc3ccccc3)nc2nc1NCCN1CCOCC1` [JB6172] was tested, and the IC50 was 0.167 µM. Compound `CN1CCN(c2nc3nc(-c4ccccc4)nc(NCCN4CCOCC4)c3nc2OCCN2CCOCC2)CC1` [JB6116] has an IC50 of 0.297 µM.
